The source of these data is PubChem BioAssay (NCI).

Some test systems named below: CCRF-CEM leukemia; DU-145 prostate; HCT-116 colon; HL-60(TB) leukemia; HOP-62 NSCLC; M14 melanoma; MALME-3M melanoma; MDA-MB-231 breast; MDA-MB-435; MDA-N; NCI-H460 lung; OVCAR-4 ovarian; SK-OV-3 ovarian; SN12C renal; SNB-75 CNS; SW-620 colon; TK-10 renal; A498 renal; SK-MEL-2 melanoma; HCC-2998 colon.
Common to all, as to experiment: DTP human tumour cell line panel, 48 h

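Step 1: Grow cells in 96-well plates. Step 2: Expose to compound for 48 hours at 5 concentrations. Step 3: Interpolate endpoints linearly; if unreached, use highest concentration. At the TGI there is no net growth.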

As usually defined, the TGI is the concentration giving total growth inhibition. Lower therefore signals greater sensitivity of the cells. `S=C1Cc2c([nH]c3ccccc23)-c2ccccc2N1`: the TGI with CCRF-CEM leukemia is above 100 µM; with DU-145 prostate it was above 100 µM; with HCT-116 colon, above 100 µM; with HL-60(TB) leukemia, above 100 µM; in the assay on HOP-62 NSCLC it was 62.3 µM; with M14 melanoma, above 100 µM. In addition, the TGI in the assay with MALME-3M melanoma, in the assay with MDA-MB-231 breast, in the assay on MDA-MB-435, in the assay on MDA-N, with NCI-H460 lung and in the assay with OVCAR-4 ovarian was above 100 µM each time. The TGI is 64.4 µM in the assay with SK-OV-3 ovarian; above 100 µM in the assay on SN12C renal; 66.7 µM in the assay with SNB-75 CNS; above 100 µM in the assay on SW-620 colon; 52.9 µM with TK-10 renal.
`Cc1ccc2nc3ccccc3c(C3C4C(=O)N(c5ccc(Br)cc5Cl)C(=O)C4ON3C(C(N)=O)c3ccccc3)c2c1` (stereo unspecified): the TGI in the assay with A498 renal, with CCRF-CEM leukemia, with DU-145 prostate, with HCT-116 colon, in the assay with HL-60(TB) leukemia and with HOP-62 NSCLC was above 25 µM in each case. The TGI in the assay on M14 melanoma is above 25 µM; in the assay with MALME-3M melanoma, above 25 µM; in the assay with MDA-MB-231 breast, above 25 µM; in the assay with MDA-MB-435, above 25 µM; in the assay with MDA-N, 23.6 µM; in the assay on NCI-H460 lung, above 25 µM. Besides, the TGI was above 25 µM in the assay with OVCAR-4 ovarian; above 25 µM in the assay with SK-MEL-2 melanoma; above 25 µM in the assay on SK-OV-3 ovarian; 23.2 µM with SN12C renal; above 25 µM in the assay on SNB-75 CNS; above 25 µM in the assay with SW-620 colon. Besides, the TGI in the assay on TK-10 renal is above 25 µM.
Turning to `CCOc1cc(NC(C)=O)ccc1C(=O)NN1C(=O)C(Oc2ccccc2)C1c1ccc(O)c(OC)c1` (stereo unspecified), the TGI in the assay on CCRF-CEM leukemia is 54.5 µM; in the assay with DU-145 prostate, above 100 µM; with HCT-116 colon it was above 100 µM; in the assay with HL-60(TB) leukemia, 44.8 µM; with HOP-62 NSCLC, above 100 µM; with M14 melanoma, above 100 µM. In addition, the TGI with MDA-MB-231 breast is above 100 µM; with MDA-MB-435, above 100 µM; in the assay on MDA-N it was above 100 µM; in the assay with OVCAR-4 ovarian, above 100 µM; in the assay on SK-MEL-2 melanoma it was 81.2 µM; in the assay on SK-OV-3 ovarian it was above 100 µM. For the same compound, the TGI is 99.4 µM in the assay on SN12C renal, above 100 µM with SNB-75 CNS, above 100 µM in the assay with SW-620 colon and above 100 µM with TK-10 renal.
For the compound `Clc1cccc(Cl)c1C1SCC2=Nc3ccccc3CN21` (stereo unspecified), the TGI is above 100 µM in the assay on A498 renal; above 100 µM in the assay with CCRF-CEM leukemia; 68.4 µM in the assay with DU-145 prostate; above 100 µM in the assay on HCC-2998 colon; 25.7 µM with HCT-116 colon; above 100 µM in the assay with HL-60(TB) leukemia. Further, the TGI is 48.9 µM in the assay on HOP-62 NSCLC; 48.1 µM with M14 melanoma; above 100 µM in the assay on MDA-MB-231 breast; above 100 µM with MDA-MB-435; above 100 µM with MDA-N; above 100 µM in the assay with NCI-H460 lung. For the same compound, the TGI in the assay with OVCAR-4 ovarian is above 100 µM; with SK-OV-3 ovarian, 50.6 µM; with SN12C renal, above 100 µM; in the assay with SNB-75 CNS, above 100 µM; with SW-620 colon, above 100 µM; in the assay with TK-10 renal it was above 100 µM.
Take `CCN(CC)Cc1cc(Nc2ccnc3ccc4c(nnn4C)c23)ccc1O`: the TGI in the assay with CCRF-CEM leukemia was 35.7 µM; in the assay with DU-145 prostate, 31.4 µM; in the assay on HCC-2998 colon it was 10.7 µM; in the assay with HCT-116 colon, 18.2 µM; in the assay with HL-60(TB) leukemia, 50.6 µM; in the assay on HOP-62 NSCLC, 19 µM. Also, the TGI in the assay on M14 melanoma turned out to be 28.7 µM; in the assay with MALME-3M melanoma, 42.1 µM; in the assay with MDA-MB-231 breast, 44.6 µM; in the assay with MDA-N, 27 µM; in the assay on NCI-H460 lung, 14.2 µM; in the assay on OVCAR-4 ovarian it was 32.6 µM. Further, the TGI was found to be 31.8 µM with SK-MEL-2 melanoma; 31.5 µM in the assay on SK-OV-3 ovarian; 31.8 µM in the assay with SN12C renal; 19.9 µM with SNB-75 CNS; 76 µM in the assay with TK-10 renal.
As for `Cc1cc(O)c(/C=N/C(=S)NCCc2ccccc2)c(=O)o1`, the TGI in the assay with DU-145 prostate, with HCC-2998 colon, in the assay with HCT-116 colon, in the assay on HL-60(TB) leukemia, in the assay with HOP-62 NSCLC and with M14 melanoma was above 100 µM in each case. The TGI in the assay on MDA-MB-231 breast, with MDA-MB-435, in the assay on MDA-N, in the assay with NCI-H460 lung, in the assay with OVCAR-4 ovarian and in the assay with SK-MEL-2 melanoma was above 100 µM in each case. Moreover, the TGI in the assay on SK-OV-3 ovarian, with SN12C renal, in the assay on SNB-75 CNS, in the assay with SW-620 colon and in the assay on TK-10 renal was above 100 µM each time.
For `CCOC(=O)C(=C(SC)SC)c1nn2c(=O)cc(C)nc2s1`, the TGI in the assay on CCRF-CEM leukemia was 68.6 µM; with DU-145 prostate it was 30.1 µM; with HCC-2998 colon it was 34.9 µM; in the assay on HCT-116 colon, 30.5 µM; in the assay with HL-60(TB) leukemia, 37.6 µM; in the assay on HOP-62 NSCLC, above 100 µM. Moreover, the TGI in the assay with M14 melanoma came out at 29.4 µM; in the assay on MALME-3M melanoma it was 32.3 µM; in the assay with MDA-MB-231 breast it was 47.8 µM; in the assay on MDA-MB-435 it was 30.7 µM; with MDA-N it was 30.6 µM; in the assay with NCI-H460 lung, 60.7 µM. Moreover, the TGI with OVCAR-4 ovarian is above 100 µM; in the assay on SK-MEL-2 melanoma, 37.5 µM; in the assay on SK-OV-3 ovarian, above 100 µM; in the assay on SN12C renal it was above 100 µM; in the assay with SNB-75 CNS, 89.6 µM; with SW-620 colon, 41.3 µM. Also, the TGI with TK-10 renal was 44.9 µM.
For `Oc1cc(O)c2c(c1)O[C@H](c1cc(O)c(O)c(O)c1)[C@H](O)C2`, the TGI in the assay on A498 renal was above 100 µM; in the assay on CCRF-CEM leukemia it was 42.4 µM; in the assay on DU-145 prostate it was above 100 µM; with HCT-116 colon, 40.3 µM; with HL-60(TB) leukemia, 42.2 µM; in the assay on HOP-62 NSCLC it was 37.3 µM. The TGI with M14 melanoma was above 100 µM; with MALME-3M melanoma it was above 100 µM; in the assay with MDA-MB-231 breast, 33.6 µM; in the assay on MDA-MB-435, 25.4 µM; with MDA-N it was 40.9 µM; in the assay on NCI-H460 lung, 38.5 µM. For the same compound, the TGI was 46.6 µM in the assay with OVCAR-4 ovarian; 28.9 µM in the assay with SK-MEL-2 melanoma; 56.7 µM in the assay on SK-OV-3 ovarian; 37 µM in the assay on SN12C renal; 98 µM in the assay with SNB-75 CNS; 32.9 µM in the assay on SW-620 colon.
